Data reported in the NIST ThermoML archive (doi:10.1016/j.fluid.2018.05.028).

Tests used:
[1] = 101 kPa, Liquid; for viscosity: Concentric cylinders viscometry; for speed of sound: Single path-length method; for mass density: Vibrating tube method
[2] = refractive index (Na D-line) (dimensionless); conditions: 101 kPa, Liquid, Standard Abbe refractometry
[3] = xn = mol fraction of the nth substance listed; conditions: 101 kPa, Liquid, x1 = 1; for viscosity: Concentric cylinders viscometry; for speed of sound: Single path-length method; for mass density: Vibrating tube method
[4] = refractive index (Na D-line) (dimensionless); xn = mol fraction of the nth substance listed; conditions: 101 kPa, Liquid, Standard Abbe refractometry, x1 = 1

CCCCO [butan-1-ol]
Conditions	mass density, [1] [kg/m3]	refractive index, [2]	speed of sound, [1] [m/s]	viscosity, [1] [mPa·s]
298.15 K	805.98	1.3979	1239.6	2.531
303.15 K	802.13	1.3959	1222.8	2.232
308.15 K	798.25	1.3938	1206	1.975

CCCCO [butan-1-ol] + CCCCCCCCCCCCCCCC
Conditions	mass density, [3] [kg/m3]	refractive index, [4]	speed of sound, [3] [m/s]	viscosity, [3] [mPa·s]
293.15 K	809.8	1.3999	1256.6	2.868
298.15 K	805.98	1.3979	1239.6	2.531
303.15 K	802.13	1.3959	1222.8	2.232
308.15 K	798.25	1.3938	1206	1.975
313.15 K	794.35	1.3918	1189.4	1.758
318.15 K	790.41	1.3897	1172.8	1.563
323.15 K	786.42	1.3876	1156.2	1.399
328.15 K	782.39	1.3855	1139.7	1.256
333.15 K	778.3	1.3833	1123.2	1.131
338.15 K	774.15	1.381	1106.6	1.021
343.15 K	769.94	1.3788	1090.1	0.925

CCCCCCCC/C=C\CCCCCCCC(=O)OCC [ethyl (Z)-9-octadeceneoate]
Conditions	mass density, [1] [kg/m3]	refractive index, [2]	speed of sound, [1] [m/s]	viscosity, [1] [mPa·s]
298.15 K	865.23	1.4481	1376.2	5.674
303.15 K	861.6	1.4461	1358.4	4.999
308.15 K	857.97	1.4441	1340.8	4.435

CCCCCCCCCCCCCCCC [hexadecane]
Conditions	mass density, [1] [kg/m3]	refractive index, [2]	speed of sound, [1] [m/s]	viscosity, [1] [mPa·s]
298.15 K	769.87	1.4318	1338.5	3.035
303.15 K	766.4	1.4296	1319.8	2.708
308.15 K	762.95	1.4275	1301.3	2.432

CCCO [propan-1-ol]
Conditions	mass density, [1] [kg/m3]	refractive index, [2]	speed of sound, [1] [m/s]	viscosity, [1] [mPa·s]
298.15 K	799.93	1.3831	1205.7	1.926
303.15 K	795.89	1.381	1188.6	1.716
308.15 K	791.82	1.3789	1171.6	1.532

CCCO [propan-1-ol] + CCCCCCCC/C=C\CCCCCCCC(=O)OCC
Conditions	mass density, [3] [kg/m3]	refractive index, [4]	speed of sound, [3] [m/s]	viscosity, [3] [mPa·s]
293.15 K	803.95	1.3852	1223	2.147
298.15 K	799.93	1.3831	1205.7	1.926
303.15 K	795.89	1.381	1188.6	1.716
308.15 K	791.82	1.3789	1171.6	1.532
313.15 K	787.71	1.3768	1154.7	1.379
318.15 K	783.56	1.3747	1137.9	1.234
323.15 K	779.36	1.3726	1121.1	1.112
328.15 K	775.1	1.3704	1104.3	1.004
333.15 K	770.78	1.3682	1087.5	0.9109
338.15 K	766.4	1.366	1070.6	0.8241
343.15 K	761.93	1.3635	1053.8	0.7468

CCCO [propan-1-ol] + CCCCCCCCCCCCCCCC
Conditions	mass density, [3] [kg/m3]	refractive index, [4]	speed of sound, [3] [m/s]	viscosity, [3] [mPa·s]
293.15 K	803.95	1.3852	1223	2.147
298.15 K	799.93	1.3831	1205.7	1.926
303.15 K	795.89	1.381	1188.6	1.716
308.15 K	791.82	1.3789	1171.6	1.532
313.15 K	787.71	1.3768	1154.7	1.379
318.15 K	783.56	1.3747	1137.9	1.234
323.15 K	779.36	1.3726	1121.1	1.112
328.15 K	775.1	1.3704	1104.3	1.004
333.15 K	770.78	1.3682	1087.5	0.9109
338.15 K	766.4	1.366	1070.6	0.8241
343.15 K	761.93	1.3635	1053.8	0.7468
